The assay relates to red blood cells (RBC). As to the kind of experiment: CAP-e assay (RBC treated with test sample, washed, lysed; CM-H2DCFDA fluorescence after oxidative challenge). It is filed as cell-based, human. The note with it: for inhibition of oxidative damage: hydroxyl free radical generator H2O2 compared with peroxyl free radical generator AAPH: dose response curves, FIG. 2 and FIG. 3. How it is done: Whole blood was collected from healthy volunteers. A double density gradient was prepared, where 3 ml of HISTOPAQUE® 1099 was overlaid with 3 ml of HISTOPAQUE® 1077. 5-6 ml of whole anticoagulated blood was layered on top of the double gradient and centrifuged for 25 minutes at 2400 rpm. The plasma, peripheral blood mononuclear cells, polymorphonuclear cells, and HISTOPAQUE® were removed using a transfer pipette. The remaining packed red blood cell fraction was washed three times in 10-14 ml PBS by centrifugation at 2400 rpm for 10 minutes. After the third wash the supernatant was removed, and the packed RBC were aliquoted for storage by pipetting 200 μl packed RBC into 10 ml PBS. The RBC aliquots were stored at 4-8° C. until use. The cells were used the same day or after up to 120 days of storage. For most routine testing, the RBC were typically prepared 2-4 weeks before use.
The antioxidant standard gallic acid (GA) was prepared by dissolving 85 mg of GA in 0.5 ml of 99.95% methanol. 0.2 ml of the dissolved GA was immediately diluted in 49.8 ml of PBS. Serial five-fold dilutions of the GA solution were prepared in PBS.
The serial dilutions of the extract and the GA standard were aliquoted in duplicate in a deep-well microplate. 100 μl of the RBC suspension was added to each well. The plate was incubated for 20 minutes at room temperature in the dark. Unabsorbed antioxidants were removed by washing the RBC three times in PBS by centrifugation for 2.5 minutes at 2400 rpm. The RBC pellets were lysed by incubation in 0.08 ml distilled water for 5 minutes at room temperature.
The fluorescent probe was prepared by reconstituting 50 μg CM-H2DCFDA in 0.2 ml anhydrous dimethyl sulfoxide, which was then added to 7.5 ml PS. After lysis of RBC was complete 70 μl of the lysed RBC were transferred to a black microplate and 50 μl of CM-H2DCFDA was added to each well (16.25 μM CM-H2DCFDA). The microplate was incubated for 20 minutes at room temperature or 37° C. in the dark. Then 50 μl H2O2 (0.0004% final concentration) or 50 μl AAPH (1 mg/ml final concentration) was added to each well. Wells exposed to H2O2 were incubated for 5 minutes at room temperature in the dark. Wells exposed to AAPH were incubated for one hour at room temperature or 37° C. in the dark. Fluorescence intensity was measured in a Tecan Spectrafluor fluorescence plate reader with excitation at 485 nm and emission at 535 nm.
Negative controls were RBC which were not treated with a test sample or standard and were not exposed to an oxidative challenge. Positive controls were RBC which were not treated with a test sample or standard, but were exposed to an oxidative challenge. The percent inhibition of oxidative damage was calculated as [(fluorescence intensity of RBC treated with free radical generator−fluorescence intensity of RBC treated with test sample and free radical generator)/(fluorescence intensity of RBC treated with free radical generator−fluorescence intensity of untreated RBC)]×100.
The CAP-e value of a given test product is based on the comparison of the dose-response of inhibition of oxidative damage between the standard gallic acid (GA) and the test sample. For each test sample or compound, the IC50 for inhibition of oxidative damage is calculated. […] The CAP-e units of GA was set as 1,000 Gallic Acid Equivalents (GAE). […] The CAP-e value was expressed as CAP-e units/g of sample.

In brackets after ≈: the same amount, converted by molar mass.

The IC50 is the concentration at which inhibition is half-maximal.

With `O=C(O)c1cc(O)c(O)c(O)c1` [GA, gallic acid], the “inhibition of oxidative damage: hydroxyl free radical generator H2O2 compared with peroxyl free radical generator AAPH” value is given as “equally effective”. The IC50 (Homo sapiens, Erythrocyte, determined from more than 60 independent experiments, read-out: IC50 for inhibition of oxidative damage) is 32 µg/mL (≈ 188 µM). Moreover, the “amount needed for the same level of protection, RBC from older person versus younger person” value (RBC from a person over 85 years versus under 50 years of age, H2O2, FIG. 11) is “More GA was required”.

`Cc1c(C)c2c(c(C)c1O)CCC(C)(C(=O)O)O2` (centres unmarked) [TROLOX®, 6-hydroxy-2,5,7,8-tetramethylchroman-2-carboxylic acid]: the “inhibition of oxidative damage: hydroxyl free radical generator H2O2 compared with peroxyl free radical generator AAPH” value is recorded as “more effective against hydroxyl free radicals at lower concentrations”. Moreover, for the setting “H2O2 and AAPH, at higher concentrations”, the “protection of RBC from damage from both free radical generators” value is on record as “protected RBC from damage”.
